# Assay results from patent US4359466A, “Guanidine compounds” (Smith Kline & French Laboratories Limited, priority 1980, dated 1982).
# Tested on: histamine H2 -receptors
# Experiment: inhibition of histamine-stimulated secretion of gastric acid from the lumen-perfused stomachs of rats anaesthetised with urethane
# Assay type: in vivo
# Conditions: i.v., lumen-perfused stomach of urethane-anaesthetised rats
smiles,measurement,value
"N=C(N)Nc1nc(CSCCNc2[nH]ccc2[N+](=O)[O-])cs1 [Example 1, 2-[2-(2-Guanidino-4-thiazolylmethylthio)ethylamino]-3-nitropyrrole]",dose causing 50% inhibition of maximal acid secretion,less than 0.1 micromole kg^-1
